ChEMBL document CHEMBL5126521, “Analgesic Opioid Ligand Discovery Based on Nonmorphinan Scaffolds Derived from Natural Sources” (J Med Chem, 2022)
Square brackets hold non-standard residues; d marks the D form. Peptide text beside a SMILES is read from it. ξ: configuration not given here. Dmt = Cc1cc(O)cc(C)c1C[C@H](N)C(=O)O; ξGly(octyl) = CCCCCCCCC(N)C(=O)O; Tic = O=C(O)[C@@H]1Cc2ccccc2CN1

Tests used:
Mus musculus [1] = assay: Antinociceptive activity in icv dosed C57BL/6J mouse assessed as tail withdrawal latency from warm water; type: functional
Mu-type opioid receptor [2] = biological target: T1, Mu-type opioid receptor (Homo sapiens, UniProt P35372); assay: Displacement of [3H]DAMGO from MOP (unknown origin) stably expressed in CHO cell membrane incubated for 90 mins by scintillation counter analysis; type: cell membranes
T1 sequence (P35372 whole entry): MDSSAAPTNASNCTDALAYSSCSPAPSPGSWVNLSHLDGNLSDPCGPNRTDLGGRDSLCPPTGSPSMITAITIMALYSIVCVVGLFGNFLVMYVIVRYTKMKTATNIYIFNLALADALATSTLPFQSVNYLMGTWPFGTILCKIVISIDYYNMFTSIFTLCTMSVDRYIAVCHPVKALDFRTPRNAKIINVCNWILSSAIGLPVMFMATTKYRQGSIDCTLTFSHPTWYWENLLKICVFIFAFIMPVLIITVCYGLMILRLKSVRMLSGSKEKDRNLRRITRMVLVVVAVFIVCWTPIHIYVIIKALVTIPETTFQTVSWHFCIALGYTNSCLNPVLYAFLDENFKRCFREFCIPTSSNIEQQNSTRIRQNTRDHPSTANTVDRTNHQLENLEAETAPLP

[3] = biological target: T2, Kappa-type opioid receptor (Homo sapiens, UniProt P41145); assay: Displacement of [3H]diprenorphine from KOP (unknown origin) stably expressed in CHO cell membrane incubated for 90 mins by scintillation counter analysis; type: cell membranes
T2 sequence (P41145 whole entry): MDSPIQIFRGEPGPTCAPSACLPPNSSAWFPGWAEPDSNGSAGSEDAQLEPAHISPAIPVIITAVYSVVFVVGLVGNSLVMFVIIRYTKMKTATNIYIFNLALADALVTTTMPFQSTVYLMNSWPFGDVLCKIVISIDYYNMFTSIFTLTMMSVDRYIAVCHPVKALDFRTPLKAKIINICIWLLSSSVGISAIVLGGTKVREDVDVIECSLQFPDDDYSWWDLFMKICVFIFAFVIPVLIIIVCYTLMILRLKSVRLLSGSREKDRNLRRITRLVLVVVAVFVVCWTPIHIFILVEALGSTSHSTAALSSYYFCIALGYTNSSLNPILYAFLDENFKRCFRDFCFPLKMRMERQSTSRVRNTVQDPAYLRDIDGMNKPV

[4] = biological target: T3, Delta-type opioid receptor (Homo sapiens, UniProt P41143); assay: Displacement of [3H]DPDPE from DOP (unknown origin) stably expressed in CHO cell membrane incubated for 90 mins by scintillation counter analysis; type: cell membranes
T3 sequence (P41143 whole entry): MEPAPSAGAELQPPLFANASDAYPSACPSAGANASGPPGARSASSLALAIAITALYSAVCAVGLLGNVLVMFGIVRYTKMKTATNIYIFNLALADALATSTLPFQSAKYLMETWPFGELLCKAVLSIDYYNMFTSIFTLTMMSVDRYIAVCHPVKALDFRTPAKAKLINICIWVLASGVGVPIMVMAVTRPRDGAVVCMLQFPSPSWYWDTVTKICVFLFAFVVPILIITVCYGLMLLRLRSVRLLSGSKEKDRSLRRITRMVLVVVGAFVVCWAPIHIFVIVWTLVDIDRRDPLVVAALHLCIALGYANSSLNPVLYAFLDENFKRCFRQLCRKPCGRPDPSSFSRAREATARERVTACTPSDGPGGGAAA

Mu-type opioid receptor [5] = biological target: T1, Mu-type opioid receptor; assay: Agonist activity at MOP in human SH-SY5Y cells assessed as forskolin stimulated cAMP accumulation incubated for 30 mins by Biotrak-EIA kit method; type: functional, cell-based
Rattus norvegicus = assay: Antinociceptive activity in Sprague-Dawley rat assessed as tail flick response in warm water administered iv; type: functional
[6] = Half life in mouse liver microsomes; type: ADME, Microsome
[7] = Toxicity in icv dosed C57BL/6J mouse assessed as antinociceptive activity tolerance; type: organism-based; conditions: in vivo, icv_or_intrathecal
[8] = Degradation half life in rat brain homogenate; type: ADME, tissue-based
[9] = biological target: T2, Kappa-type opioid receptor; assay: Antagonist activity at human KOP stably expressed in CHO cell membrane assessed as [35S]GTPgammaS binding; type: functional, cell membranes
[10] = biological target: Kappa-type opioid receptor (Rattus norvegicus, UniProt P34975); assay: Displacement of [3H]diprenorphine from rat KOP stably expressed in CHO cell membrane; type: cell membranes
Chain of Kappa-type opioid receptor (Rattus norvegicus, UniProt P34975) (P34975 whole entry): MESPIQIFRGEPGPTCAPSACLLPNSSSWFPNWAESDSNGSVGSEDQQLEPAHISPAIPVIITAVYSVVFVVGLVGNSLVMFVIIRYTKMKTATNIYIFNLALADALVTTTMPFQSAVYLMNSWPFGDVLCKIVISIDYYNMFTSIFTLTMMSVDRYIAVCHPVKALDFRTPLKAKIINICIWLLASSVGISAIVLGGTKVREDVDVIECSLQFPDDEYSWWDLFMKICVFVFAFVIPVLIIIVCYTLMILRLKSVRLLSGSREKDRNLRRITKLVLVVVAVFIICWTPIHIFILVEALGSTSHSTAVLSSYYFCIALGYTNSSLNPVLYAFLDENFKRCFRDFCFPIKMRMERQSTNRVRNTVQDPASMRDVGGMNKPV

Mu-type opioid receptor [11] = biological target: T1, Mu-type opioid receptor; assay: Antagonist activity at human MOP stably expressed in CHO cell membrane assessed as [35S]GTPgammaS binding; type: functional, cell membranes
[12] = Stability in rat brain homogenate assessed as half life; type: ADME, tissue-based
Mu-type opioid receptor [13] = biological target: T1, Mu-type opioid receptor; assay: Binding affinity to MOP (unknown origin)
[14] = Stability in mouse serum assessed as half life; type: ADME, cell-free
[15] = biological target: T3, Delta-type opioid receptor; assay: Binding affinity to DOP (unknown origin)
Mus musculus [16] = assay: Antinociceptive activity in Kunming mouse assessed as heat paw withdrawal measured after 10 secs administered icv; type: functional; conditions: time 10 sec, 10 s
Mus musculus [17] = assay: Antinociceptive activity in ip dosed mouse assessed as tail flick latency; type: functional
[18] = biological target: T2, Kappa-type opioid receptor; assay: Inhibition of KOP (unknown origin)
[19] = biological target: T3, Delta-type opioid receptor; assay: Inhibition of DOP (unknown origin)

C[C@@H]1NC(=O)[C@H](Cc2c[nH]c3ccccc23)NC(=O)[C@H](Cc2ccccc2)NC(=O)[C@H]2CCCN2C1=O
ED50 (Mus musculus [1]): 1.49 nmol | Ki (Mu-type opioid receptor [2]): 32.2 nM | Ki [3]: 8 nM | Ki [4]: 8680 nM

CCCCCCCCC(N)C(=O)N[C@@H](Cc1c(C)cc(O)cc1C)C(=O)N1CCC[C@H]1C(=O)N[C@@H](Cc1c[nH]c2ccccc12)C(=O)N[C@@H](Cc1ccccc1)C(N)=O (stereo not given in full) (H-[ξGly(octyl)][Dmt]PWF-NH2)
EC50 (Mu-type opioid receptor [5]): 1.3 nM | ED50 (Rattus norvegicus): 1 µmol/kg

O=C1N[C@H](Cc2c[nH]c3ccccc23)C(=O)N[C@H](Cc2ccccc2)C(=O)N2CCC[C@@H]2C(=O)N[C@H]1Cc1ccccc1
ED50 (Mus musculus [1]): 2.39 nmol | Ki (Mu-type opioid receptor [2]): > 100000 nM | Ki [3]: > 100000 nM | half-life [6]: ≤ 30 min

C[C@@H]1C(=O)N[C@@H](Cc2ccccc2)C(=O)N[C@@H](Cc2c[nH]c3ccccc23)C(=O)N[C@@H](Cc2ccccc2)C(=O)N1C
ED50 (Mus musculus [1]): 2.43 nmol | Ki (Mu-type opioid receptor [2]): 140 nM | Ki [3]: 113 nM | Ki [4]: 1370 nM

CCCCCCCCC(N)C(=O)N[C@@H](Cc1ccc(O)cc1)C(=O)N1CCC[C@H]1C(=O)N[C@@H](Cc1c[nH]c2ccccc12)C(=O)N[C@@H](Cc1ccccc1)C(N)=O (stereo not given in full) (H-[ξGly(octyl)]YPWF-NH2)
EC50 (Mu-type opioid receptor [5]): 31.4 nM | ED50 (Rattus norvegicus): 1.2 µmol/kg

C[C@@H]1NC(=O)[C@H]2CCCN2C(=O)[C@H](Cc2ccccc2)NC(=O)[C@H](Cc2c[nH]c3ccccc23)NC1=O
Ki (Mu-type opioid receptor [2]): 533 nM | Ki [3]: 663 nM | Ki [4]: > 10000 nM

O=C1N[C@@H](Cc2ccccc2)C(=O)N2CCC[C@@H]2C(=O)N[C@H](Cc2ccccc2)C(=O)N[C@H]1Cc1c[nH]c2ccccc12
ED50 (Mus musculus [1]): 20.4 nmol | ED50 [7]: 125 nmol | half-life [6]: ≤ 30 min

Cc1cc(O)cc(C)c1C[C@H](N)C(=O)N1Cc2ccccc2C[C@H]1C(=O)N[C@@H](Cc1ccccc1)C(=O)N[C@@H](Cc1ccccc1)C(N)=O (H-[Dmt][Tic]FF-NH2)
half-life [8]: 6.1 min

C[C@@H]1NC(=O)[C@@H](Cc2c[nH]c3ccccc23)NC(=O)[C@H](Cc2ccccc2)NC(=O)[C@H]2CCCN2C1=O
ED50 (Mus musculus [1]): 1.99 nmol | IC50 [9]: 0.81 nM | Ki [10]: 3.07 nM | IC50 (Mu-type opioid receptor [11]): 8.08 nM

C[C@@H]1NC(=O)[C@H](Cc2ccccc2)NC(=O)[C@H]2CCCN2C(=O)[C@H](Cc2ccccc2)NC1=O
ED50 (Mus musculus [1]): 6.97 nmol | Ki (Mu-type opioid receptor [2]): 687 nM | Ki [3]: 1550 nM | Ki [4]: > 10000 nM

CC(C)(C)OC(=O)[C@H](Cc1ccccc1)NC(=O)[C@H](Cc1ccccc1)NC(=O)[C@@H]1CCCN1C(=O)[C@@H](N)Cc1ccc(O)cc1
half-life [12]: 72.2 min | Ki (Mu-type opioid receptor [13]): 50.3 nM | half-life [14]: 46 min | Ki [15]: 247 nM | ED50 (Mus musculus [16]): 3.2 nmol

COC(=O)[C@@H]1C[C@H](O[C@@H]2CCCCO2)C(=O)[C@H]2[C@@]1(C)CC[C@H]1C(=O)O[C@H](c3ccoc3)C[C@]21C
ED50 (Mus musculus [17]): 1.4 mg/kg

CC[C@H]1CN2CCc3c([nH]c4cccc(OC)c34)[C@@H]2C[C@@H]1/C(=C\OC)C(=O)OC
IC50 [18]: 10000 nM | Ki [15]: > 10000 nM | IC50 [19]: > 10000 nM

CCOC(=O)[C@H](Cc1ccccc1)NC(=O)[C@H](Cc1ccccc1)NC(=O)[C@@H]1CCCN1C(=O)[C@@H](N)Cc1ccc(O)cc1
half-life [12]: 58.6 min | Ki (Mu-type opioid receptor [13]): 15 nM | half-life [14]: 29.9 min | Ki [15]: 2940 nM | ED50 (Mus musculus [16]): 8.4 nmol

COC(=O)[C@H](Cc1ccccc1)NC(=O)[C@H](Cc1ccccc1)NC(=O)[C@@H]1CCCN1C(=O)[C@@H](N)Cc1ccc(O)cc1
half-life [12]: 47.6 min | Ki (Mu-type opioid receptor [13]): 9.07 nM | half-life [14]: 30.1 min | Ki [15]: > 10000 nM | ED50 (Mus musculus [16]): 3 nmol
